Experimental data from patent publication US7524861B2, “Process for the preparation of a hydrate of an anthranilic acid derivative” (priority 2002, dated 2009).
Marks after values point to notes of the source that are not given here.

What was measured:
[1] = Dehydration/re-hydration study (weight change over desiccants, then 33-95% RH, KF water content); format: physicochemical
Procedure: (§1) The hexahydrate produced in Example 1 was analysed as follows. Four desiccator cabinets were prepared to contain open dishes of the following saturated salt solutions, to achieve the following approximate relative humidities (RH).
(§2) Dehydration of samples was carried out by storing them over silica gel or over P2O5 at reduced pressure (65 mm Hg). All studies were performed at ambient laboratory temperature (15-22° C.).
During this study, samples were dispensed to pre-equilibrated weighing bottles as in the hygroscopicity study, and were then stored over silica gel without reduced pressure, then over […] under reduced pressure (65 mm Hg) to dehydrate the hydrate. Once a stable weight was achieved over P2O5, samples were re-hydrated by storing them at 33% RH to 95% RH, in parallel with the hygroscopicity study as described above.
(§3) Water contents were measured by coulometric KF (Karl Fischer) titration.

[2] = Hygroscopicity study (weight change on storage at 33-95% RH, KF water content); format: physicochemical; conditions: for KF moisture result: hygroscopicity sample
Procedure: as §1, §2
Pre-equilibrated weighing bottles and lids (stored at 33% RH for a minimum of 24 hours) were weighed on a tared 5-figure analytical balance, and the weight recorded. To these the hydrate was added (approx 2 g), the weight recorded and the difference (the accurate weight of the drug substance) calculated. The weighing bottles, lids and contents were then transferred to the 33% RH cabinet, with the lids removed and placed to the side.
At appropriate times, the lids were replaced and the weight measured. After weighing, the samples were gently agitated and placed back in the 33% RH cabinet, again with the lid removed and placed to one side. This process continued until all % weight changes for all samples were seen to have reached stable end-points. […]. When stable end-points were observed, the samples were stepped up to the next % RH cabinet by transferring the drug to pre-equilibrated weighing bottles, recording their weight as before. Samples were stored progressively at 33% RH, 60% RH, 75% RH and 95% RH.
as §3

COc1cc2c(cc1OC)CN(CCc1ccc(NC(=O)c3cc(OC)c(OC)cc3NC(=O)c3cnc4ccccc4c3)cc1)CC2 [Example 1, Quinoline-3-carboxylic acid (2-{4-[2-(6,7-dimethoxy-3,4-dihydro-1H-isoquinolin-2-yl)-ethyl]-phenylcarbamoyl}-4,5-dimethoxy-phenyl)-amide]
Cumulative % change Dehydration/Rehydration ([1]; re-hydration at 33% RH, cumulative time 1741.50 h): −0.97%
Cumulative % change Dehydration/Rehydration ([1]; silica, no vacuum, cumulative time 3.00 h): −2.29%
Cumulative % change Dehydration/Rehydration ([1]; silica, no vacuum, cumulative time 8.50 h): −3.58%
Cumulative % change Dehydration/Rehydration ([1]; silica, no vacuum, cumulative time 24.50 h): −5.92%
Cumulative % change Dehydration/Rehydration ([1]; silica, no vacuum, cumulative time 30.50 h): −6.39%
Cumulative % change Dehydration/Rehydration ([1]; silica, no vacuum, cumulative time 56.00 h): −8.06%
Cumulative % change Dehydration/Rehydration ([1]; silica, no vacuum, cumulative time 80.00 h): −8.50%
Cumulative % change Dehydration/Rehydration ([1]; silica, no vacuum, cumulative time 237.50 h): −8.96%
Cumulative % change Dehydration/Rehydration ([1]; silica, no vacuum, cumulative time 288.50 h): −9.07%
Cumulative % change Dehydration/Rehydration ([1]; silica, with vacuum, cumulative time 308.00 h): −9.07%
Cumulative % change Dehydration/Rehydration ([1]; silica, with vacuum, cumulative time 401.00 h): −8.76%
Cumulative % change Hygroscopicity ([2]; 33% RH, tabulated time 1147.25 h (actual: minus 1144 h)): −0.17* %
Cumulative % change Hygroscopicity ([2]; 33% RH, tabulated time 1150.75 h (actual: minus 1144 h)): −0.22%
Cumulative % change Hygroscopicity ([2]; 33% RH, tabulated time 1168.00 h (actual: minus 1144 h)): −0.47%
Cumulative % change Hygroscopicity ([2]; 33% RH, tabulated time 1240.75 h (actual: minus 1144 h)): −0.37%
Cumulative % change Hygroscopicity ([2]; 33% RH, tabulated time 1268.50 h (actual: minus 1144 h)): −0.42%
Cumulative % change Hygroscopicity ([2]; 33% RH, tabulated time 1312.50 h (actual: minus 1144 h)): −0.49%
Cumulative % change Hygroscopicity ([2]; 33% RH, tabulated time 1431.25 h (actual: minus 1144 h)): −0.63%
Cumulative % change Hygroscopicity ([2]; 33% RH, tabulated time 1502.25 h (actual: minus 1144 h)): −0.51%
Cumulative % change Hygroscopicity ([2]; 33% RH, tabulated time 1672.50 h (actual: minus 1144 h)): −0.70%
Cumulative % change Hygroscopicity ([2]; 33% RH, tabulated time 1741.50 h (actual: minus 1144 h)): −0.76%
hygroscopicity on storage at progressively higher RH values ([2]; 33% to 95% RH, ambient temperature): no evidence of hygroscopicity
Cumulative % change Hygroscopicity ([2]; 60% RH, tabulated time 1744.50 h (actual: minus 1144 h)): 0.12%
Cumulative % change Hygroscopicity ([2]; 60% RH, tabulated time 1746.50 h (actual: minus 1144 h)): 0.13%
Cumulative % change Hygroscopicity ([2]; 60% RH, tabulated time 1762.50 h (actual: minus 1144 h)): 0.08%
Cumulative % change Hygroscopicity ([2]; 60% RH, tabulated time 1835.75 h (actual: minus 1144 h)): 0.27%
Cumulative % change Hygroscopicity ([2]; 60% RH, tabulated time 1932.25 h (actual: minus 1144 h)): 0.37%
Cumulative % change Hygroscopicity ([2]; 60% RH, tabulated time 2101.50 h (actual: minus 1144 h)): 0.56%
Cumulative % change Hygroscopicity ([2]; 60% RH, tabulated time 2147.75 h (actual: minus 1144 h)): 0.34%
Cumulative % change Hygroscopicity ([2]; 60% RH, tabulated time 2273.75 h (actual: minus 1144 h)): 0.34%
Cumulative % change Hygroscopicity ([2]; 60% RH, tabulated time 2410.25 h (actual: minus 1144 h)): 0.27%
Cumulative % change Hygroscopicity ([2]; 75% RH, tabulated time 2417.25 h (actual: minus 1144 h)): 0.87%
Cumulative % change Hygroscopicity ([2]; 75% RH, tabulated time 2434.25 h (actual: minus 1144 h)): 0.88%
Cumulative % change Hygroscopicity ([2]; 75% RH, tabulated time 2441.25 h (actual: minus 1144 h)): 0.88%
Cumulative % change Hygroscopicity ([2]; 75% RH, tabulated time 2482.00 h (actual: minus 1144 h)): 0.92%
Cumulative % change Hygroscopicity ([2]; 75% RH, tabulated time 2577.75 h (actual: minus 1144 h)): 1.00%
Cumulative % change Hygroscopicity ([2]; 75% RH, tabulated time 2609.75 h (actual: minus 1144 h)): 0.96%
Cumulative % change Hygroscopicity ([2]; 75% RH, tabulated time 2681.25 h (actual: minus 1144 h)): 1.08%
Cumulative % change Hygroscopicity ([2]; 75% RH, tabulated time 2770.25 h (actual: minus 1144 h)): 1.01%
Cumulative % change Hygroscopicity ([2]; 75% RH, tabulated time 2817.75 h (actual: minus 1144 h)): 1.09%
Cumulative % change Hygroscopicity ([2]; 95% RH, tabulated time 2825.25 h (actual: minus 1144 h)): 1.85%
Cumulative % change Hygroscopicity ([2]; 95% RH, tabulated time 2841.75 h (actual: minus 1144 h)): 2.23%
Cumulative % change Hygroscopicity ([2]; 95% RH, tabulated time 2915.75 h (actual: minus 1144 h)): 2.57%
Cumulative % change Hygroscopicity ([2]; 95% RH, tabulated time 2937.75 h (actual: minus 1144 h)): 2.71%
Cumulative % change Hygroscopicity ([2]; 95% RH, tabulated time 2991.25 h (actual: minus 1144 h)): 2.82%
Cumulative % change Hygroscopicity ([2]; 95% RH, tabulated time 3082.25 h (actual: minus 1144 h)): 3.28%
Cumulative % change Hygroscopicity ([2]; 95% RH, tabulated time 3130.00 h (actual: minus 1144 h)): 3.51%
Cumulative % change Hygroscopicity ([2]; 95% RH, tabulated time 3182.25 h (actual: minus 1144 h)): 3.39%
Cumulative % change Hygroscopicity ([2]; 95% RH, tabulated time 3252.25 h (actual: minus 1144 h)): 3.62%
Cumulative % change Hygroscopicity ([2]; 95% RH, tabulated time 3350.25 h (actual: minus 1144 h)): 3.65%
Cumulative % change Hygroscopicity ([2]; 95% RH, tabulated time 3422.25 h (actual: minus 1144 h)): 3.64%
Cumulative % change Hygroscopicity ([2]; 95% RH, tabulated time 3636.25 h (actual: minus 1144 h)): 4.12%
Cumulative % change Hygroscopicity ([2]; 95% RH, tabulated time 4332.75 h (actual: minus 1144 h)): 4.45%
weight increase between storage at 33% RH and end of storage at 75% RH ([2]; both re-hydrated and untreated samples): less than 2 % (absolute)
KF moisture result ([2]; 95% RH, tabulated time 4332.75 h (end)): (15.35) % w/w
KF moisture result ([2]; printed in first 33% RH row (start of study)): (12.45) % w/w
